Data taken from PMC10819458, “Using Pharmacokinetic–Pharmacodynamic Modeling to Study the Main Active Substances of the Anticancer Effect in Mice from Panax ginseng–Ophiopogon japonicus” (Molecules, 2024).
Read-outs that look alike come from different tables or passages of the source.

Assay: Lung-tissue pharmacokinetics of PG–OJ components in tumor-bearing mice (UPLC–MS/MS)
Type: in vivo, BALB/c nude male mice
Settings: for Cmax: read-out: Cmax; for MRT last: read-out: MRT(0–t) (converted)
Text: This study employed Ultra-Performance Liquid Chromatography–Mass Spectrometry (UPLC–MS/MS) to examine the pharmacokinetic properties of 20 bioactive components in a cell-derived xenograft (CDX) model following oral administration of a 10.2 g/kg PG–OJ extract.
Healthy BALB/c nude male mice (weight: 18–21 g) were purchased from Beijing Huafukang Biotechnology Co., Ltd. (Beijing, China, License Number: SCXK (Jing) 2021-0006). After 3 days of acclimatization, the mice were randomly divided into the control group (CG), model group (MG), and the combined-administration group of P. ginseng and O. japonicus (HM1-HM13) ([…], four-fold clinical-equivalent doses). Subsequently, except for the CG, 0.2 mL (approximately 2 × 10^7 cells) of A549 cell suspension was aspirated with a 1 mL syringe and injected into the right axillary fossa of the model group and drug-administration-group mice. The control-group mice were injected with an equal volume of PBS at the same location. The tumor diameter was measured daily using a caliper. The model was successful when the tumor diameter > 3 mm. The combined-administration group of P. ginseng and O. japonicus was given the corresponding drug orally, once a day, with 0.2 mL/mouse each time. The control group and the model group mice were given the same volume of distilled water, continuously orally for 21 days. During this period, the body weight and tumor volume of the mice were recorded. At the end of the last administration, the mice were […] 0.083, 0.167, 0.25, 0.5, 0.75, 1, 2, 3, 4, 6, 8, 12, 24 h later. After injecting 0.1% pentobarbital sodium, blood was collected from the eye-socket vein, the mice were decapitated, and the tumor and lung tissues were carefully removed.
After homogenizing 50 mg of right-lung-tissue sample, 2 mL of acetonitrile was added to precipitate proteins. The mixture was oscillated for 2 min and then centrifuged for 10 min (12,000 rpm, 4 °C). The supernatant from the new centrifuge tube was collected and dried with nitrogen at room temperature. Finally, the supernatant was redissolved in 50 μL of acetonitrile solution containing 0.1% formic acid. After oscillating for 1 min, another centrifugation step was performed, and the resulting supernatant was used for analysis.
Samples were analyzed on the Vanquish UPLC System (Thermo, Waltham, MA, USA). The Agilent C18 column (4.6 × 150 mm, 4 μm, PN:693970-902T) was selected. The mobile phase was composed of 0.1% formic acid aqueous solution (A) and 0.1% formic acid acetonitrile solution (B). The procedure of gradient elution was as follows: 0–10 min, 95–75% A; 10–25 min, 75–45% A; 25–40 min, 45–30% A; 40–50 min, 30–5% A; 55–55.1 min, 5–95% A; 55.1–60 min, 95% A. The column temperature was set to 30 °C with the flow rate of 0.3 mL/min and the injection volume of 3.0 μL. The mass-spectrometry detection with negative-ion mode was carried out using an Orbitrap Exploris 120 Mass Spectrometer (Thermo, Waltham, MA, USA) and Electrospray ionization (ESI). The sheath-gas-flow rate was […] and the auxiliary-gas-flow rate was […]. The capillary temperature was 325 °C, and the resolution was 120,000 in full scan mode with the mass scan range of 80~1500 m/z. The secondary cracking was performed with HCD at a collision voltage of 30 eV, and unnecessary MS/MS information was removed using the dynamic exclusion method.

[1] = lung tissue, A549 tumor-bearing mice, intragastric PG–OJ extract 10.2 g/kg (6.8 g/kg elsewhere in the source), mean ± SD, n = 6
[2] = male, BALB/c nude, mouse, po, lung tissue, A549 tumor-bearing mice, intragastric PG–OJ extract 10.2 g/kg (6.8 g/kg elsewhere in the source), mean ± SD, n = 6
[3] = male, BALB/c nude, mouse, in vivo, po, lung tissue, A549 tumor-bearing mice, intragastric PG–OJ extract 10.2 g/kg (6.8 g/kg elsewhere in the source), mean ± SD, n = 6

SMILES: CC(C)=CC/C=C(\C)[C@H]1CC[C@]2(C)[C@@H]1[C@H](O)C[C@@H]1[C@@]3(C)CC[C@H](O[C@@H]4O[C@H](CO)[C@@H](O)[C@H](O)[C@H]4O[C@@H]4O[C@H](CO)[C@@H](O)[C@H](O)[C@H]4O)C(C)(C)[C@@H]3CC[C@]12C [Ginsenoside Rg5]
- AUC(0–t) [1]: 1,342,117.43 ± 45,675.73 ng/g·min
- AUC(0–∞) [1]: 1,372,202.28 ± 48,963.33 ng/g·min
- AUC(0–∞) compared with other components (lung tissue, oral PG–OJ extract, in words): significantly higher than those of other components
- Tmax (male, BALB/c nude, mouse, lung tissue, po, 10.2 g/kg, lung tissue, A549 tumor-bearing mice, intragastric PG–OJ extract 10.2 g/kg (6.8 g/kg elsewhere in the source), mean ± SD, n = 6, read-out: Tmax (converted)): 4 h
- Tmax (male, BALB/c nude, mouse, lung tissue, po, 10.2 g/kg, lung tissue, oral PG–OJ extract, read-out: time to reach peak concentration): 12 h
- Cmax [2]: 7970 ± 442 ng/g
- MRT last [2]: 3.07 h
- half-life (male, BALB/c nude, mouse, po, lung tissue, A549 tumor-bearing mice, intragastric PG–OJ extract 10.2 g/kg (6.8 g/kg elsewhere in the source), mean ± SD, n = 6, read-out: T1/2): 2.11 ± 0.157 h
- exposure level in lung tissue (oral PG–OJ extract, in words): highest exposure level

SMILES: CC(C)=CCC[C@](C)(O)[C@H]1CC[C@]2(C)[C@@H]1[C@H](O)C[C@@H]1[C@@]3(C)CC[C@H](O)C(C)(C)[C@@H]3[C@@H](O[C@@H]3O[C@H](CO)[C@@H](O)[C@H](O)[C@H]3O)C[C@]12C [Ginsenoside Rh1]
- AUC(0–t) [1]: 1303.44 ± 70.16 ng·min/g
- AUC(0–∞) [1]: 1724.14 ± 411.48 ng·min/g
- time to reach maximum concentration (Cmax) after administration (lung tissue, oral PG–OJ extract): ≤ 15 min
- half-life (male, BALB/c nude, mouse, in vivo, po, 10.2 g/kg, lung tissue, A549 tumor-bearing mice, intragastric PG–OJ extract 10.2 g/kg (6.8 g/kg elsewhere in the source), mean ± SD, n = 6, read-out: T1/2): 6.97 ± 4.9 h
- half-life (male, BALB/c nude, mouse, in vivo, po, 10.2 g/kg, lung tissue, oral PG–OJ extract, read-out: half-life (converted)): 6.9 h
- Cmax [3]: 8.98 ± 0.2 ng/g
- MRT last [3]: 3.18 h
- Tmax (male, BALB/c nude, mouse, in vivo, po, lung tissue, A549 tumor-bearing mice, intragastric PG–OJ extract 10.2 g/kg (6.8 g/kg elsewhere in the source), mean ± SD, n = 6, read-out: Tmax (converted)): 0.208 h
- exposure level in lung tissue (oral PG–OJ extract, in words): extremely low

SMILES: CC1(C)CC[C@]2(C(=O)O[C@@H]3O[C@H](CO)[C@@H](O)[C@H](O)[C@H]3O)CC[C@]3(C)C(=CC[C@@H]4[C@@]5(C)CC[C@H](O[C@@H]6O[C@H](C(=O)O)[C@@H](O)[C@H](O)[C@H]6O[C@@H]6O[C@H](CO)[C@@H](O)[C@H](O)[C@H]6O)C(C)(C)[C@@H]5CC[C@]43C)[C@@H]2C1 [Ginsenoside Ro]
- T1/2 (mouse, in vivo, po): 4.2077 ± 0.198 h
- Tmax (mouse, in vivo, po): 0.2083 ± 0.0482 h
- time to reach maximum concentration (Cmax) after administration (mouse, in vivo, po): ≤ 15 min

SMILES: Cc1c(O)c(C)c2c(c1O)C(=O)[C@H](Cc1ccc3c(c1)OCO3)CO2 [Methylophiopogonanone A]
- T1/2 (mouse, in vivo, po): 20.3208 ± 6.0457 h
- Tmax (mouse, in vivo, po): 2.5 ± 0 h

SMILES: COc1ccc(C[C@@H]2COc3c(C)c(O)c(C)c(O)c3C2=O)cc1 [Methylophiopogonanone B]
- T1/2 (mouse, in vivo, po): 6.5088 ± 1.6737 h
- Tmax (mouse, in vivo, po): 2.5 ± 0 h

SMILES: CC(C)=CCC[C@](C)(O[C@@H]1O[C@H](CO)[C@@H](O)[C@H](O)[C@H]1O)[C@H]1CC[C@]2(C)[C@@H]1[C@H](O)C[C@@H]1[C@@]3(C)CC[C@H](O)C(C)(C)[C@@H]3[C@@H](O[C@@H]3O[C@H](CO)[C@@H](O)[C@H](O)[C@H]3O[C@@H]3OC[C@@H](O)[C@H](O)[C@H]3O)C[C@]12C [Notoginsenoside R1]
- T1/2 (mouse, in vivo, po): 1.24 ± 0.0245 h
- Tmax (mouse, in vivo, po): 0.125 ± 0.059 h
- exposure level in lung tissue (mouse, in vivo, po): extremely low
- time to reach maximum concentration (Cmax) after administration (mouse, in vivo, po): ≤ 15 min

SMILES: CC(C)(O)[C@H]1CC[C@@](C)([C@H]2CC[C@]3(C)[C@@H]2[C@H](O)C[C@@H]2[C@@]4(C)CC[C@H](O)C(C)(C)[C@@H]4[C@@H](O[C@@H]4O[C@H](CO)[C@@H](O)[C@H](O)[C@H]4O)C[C@]23C)O1 [Pseudoginsenoside RT5]
- T1/2 (mouse, in vivo, po): 10.572 ± 2.3632 h
- Tmax (mouse, in vivo, po): 0.25 ± 0 h
- half-life (mouse, in vivo, po): 10.6 h
- time to reach maximum concentration (Cmax) after administration (mouse, in vivo, po): ≤ 15 min
